# Reference: patent US10933111B2, “Treating dry eye disorders” (Boston Biotechnology US CORP, priority 2019, dated 2021)
# Tested on: patients with dry eye disorder and other eye symptoms
# Assay: Clinical usage of deacidified coconut oil for treating eye diseases or disorders (three patients)
# Assay type: in vivo, human
# Settings: before deacidified coconut oil
# Experimental: The deacidified coconut oil was initially developed for treating the dry eye disorder. As the research continued, it was determined that the deacidified coconut oil can also be used to treat asthenopia, impaired vision, blurred vision, photophobia, astigmatism, and blepharitis. As shown in the following cases, the deacidified coconut oil was successfully administered to three patients with positive outcomes.
# […] […] […] […] […] In 2013-2014, the patient developed additional eye symptoms including astigmatism, blepharitis, anxiety and body weight loss (e.g., about 10 kilograms). In 2015, the patient used the deacidified coconut oil as described herein as eye drops, placed the thermal pad as described herein on the eyes, and took herb composition as described herein. […] In 2019, the symptoms of dry eye disorder including pain, dryness, redness, foreign matter sensation and insomnia were gone. In addition, symptoms such as repetitive visual fatigue, decreased vision, blurred vision, photophobia, sensitivity to wind, astigmatism, and eyelid inflammation disappeared. The patient's overall vision condition improved relative to that in 2015. The eyeglass prescription for both eyes decreased by 1.50-2.00.
# The second patient, person. […]
substance,measurement,value
Recombinant Bovine Basic Fibroblast Growth Factor Eye Drops: Recombinant Bovine Basic Fibroblast Growth Factor Eye Drops,"effect of earlier treatment, second patient",No significant improvement was observed
